Measured values taken from patent EP2108954A1, “A test system for detecting intracellular cyclic nucleotide level and methods and uses thereof” (Max-Planck-Gesellschaft zur Förderung der Wissenschaften …, priority 2008, dated 2009).

Target: T1, Or22a and Or83b (Drosophila melanogaster, UniProt P81909+Q9VNB5)
T1 construct: expressed in transfected cells; host or cells: HEK293
T1 sequence (P81909 1-397): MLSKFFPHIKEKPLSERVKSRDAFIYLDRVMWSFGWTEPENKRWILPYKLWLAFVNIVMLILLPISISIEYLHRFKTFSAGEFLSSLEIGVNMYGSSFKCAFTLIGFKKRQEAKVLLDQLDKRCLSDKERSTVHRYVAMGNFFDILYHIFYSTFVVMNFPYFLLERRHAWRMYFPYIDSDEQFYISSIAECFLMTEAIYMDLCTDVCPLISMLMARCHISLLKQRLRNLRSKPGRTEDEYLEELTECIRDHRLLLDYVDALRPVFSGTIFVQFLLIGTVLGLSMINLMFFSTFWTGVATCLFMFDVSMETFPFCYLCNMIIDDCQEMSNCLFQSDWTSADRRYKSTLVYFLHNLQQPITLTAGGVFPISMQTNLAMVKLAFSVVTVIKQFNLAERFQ
T1 sequence (Q9VNB5 1-486): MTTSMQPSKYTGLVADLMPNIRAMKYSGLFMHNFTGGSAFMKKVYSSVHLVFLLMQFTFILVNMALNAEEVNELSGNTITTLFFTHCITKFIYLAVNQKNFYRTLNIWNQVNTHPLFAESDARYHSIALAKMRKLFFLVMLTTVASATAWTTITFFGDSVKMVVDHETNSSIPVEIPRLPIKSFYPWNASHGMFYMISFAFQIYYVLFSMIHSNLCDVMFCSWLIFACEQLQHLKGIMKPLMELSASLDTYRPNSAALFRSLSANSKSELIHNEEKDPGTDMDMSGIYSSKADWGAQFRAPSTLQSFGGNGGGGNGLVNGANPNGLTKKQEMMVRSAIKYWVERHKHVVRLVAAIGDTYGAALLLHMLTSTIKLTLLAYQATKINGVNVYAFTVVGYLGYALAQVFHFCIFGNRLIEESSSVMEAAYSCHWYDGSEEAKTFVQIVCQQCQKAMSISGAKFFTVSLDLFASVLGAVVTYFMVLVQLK
Test: Outside-out patch recording from HEK293 cells coexpressing Or22a and Or83b
Format: cell-based
Conditions: Etb 100 nM, 1 s, -60 mV; for Ii Peak size / Ii Peak time / Ii Recov. / Im Latency / Im Peak size / Im Peak time / Im Recov.: Or22a C-terminal GFP fusion protein
Method: HEK293 cells were cultured as described by Wicher and colleagues (Wicher et al., J. Biol. Chem. 281, 3227-36 (2006)). In brief, HEK293 cells were cultured at a density of ∼2*10^4 per 35-mm dish and transfected with 1 µg pcDNA3-DOR22a-GFP and 1 µg pcDNA3-DOR83b-GFP (Neuhaus, et al., Nat. Neurosci. 8, 15-17 (2005); DNAs were a generous gift of Dr. E. Neuhaus and Dr. H. Hatt) using Roti-Fect transfection kit (Roth, Karlsruhe, Germany). In some experiments we transfected cells with pcDNA3-DOR22a-GFP or pcDNA3-DOR83b-GFP alone. We also examined the properties of DOR47a, which was cloned, using standard molecular biology methods into a pcDNA3.1(-) expression vector. To test for putative G-protein coupling, cells were transfected with the respective OR-DNA together with 1.5 µg hHCN2/pcDNA3 (provided by M. Biel, Munich, Germany), with 1 µg hKCNQ4/pcDNA3.1 or with 1 µg hCNGA2/pCMV6-XL4 (Origene, Rockville, MD, USA).
Ion currents in HEK293 cells were measured with the patch-clamp technology as described (Wicher et al, J. Biol. Chem. 281, 3227-36 (2006)). In brief, ion currents in HEK293 cells were measured at room temperature using whole-cell patch-clamp with appropriate compensation of series resistance and of capacitive currents. Additional experiments were performed in the outside-out configuration. Current measurements and data acquisition were performed using an EPC9 patch-clamp amplifier controlled by PatchMaster software (both HEKA Elektronik, Lambrecht, Germany). Patch-clamp pipettes were fabricated from borosilicate capillaries. Pipettes for whole-cell recordings had resistances of 2-4 MΩ for excised-patch recordings the pipette resistance was up to 15 MΩ.
The standard pipette solution contained (in mM) 140 KCl, 4 NaCl, 2.2 CaCl2, 2 Mg-ATP, 0.05 Na-GTP, 5 EGTA, 10 HEPES (pH 7.3), and the standard bath solution contained (in mM) 135 NaCl, 5 KCI, 1 CaCl2, 1 MgCl2, 10 HEPES, 10 glucose (pH 7.4). To differentiate between ionotropic and metabotropic pathways of receptor activation (Fig. 2a-d) the pipette solution contained either 2 mM ATP plus 2 mM GTP or 2 mM ADP plus 2 mM GDP (both for whole-cell and outside-out configuration). For the preparation of Cl^--free solutions the chloride salts were substituted by gluconate salts. The pipette Cs^+ solution contained (in mM) 140 CsCl, 1 Mg-ATP, 10 EGTA, 10 HEPES (pH = 7.3), and the Cs^+ bath solution contained (in mM) 140 CsCl, 15 glucose, 15 HEPES (pH = 7.4). The Ca^2+-free bath solution contained (in mM) 140 NaCl, 15 glucose, 15 HEPES, and the Na^+-free bath solution contained (in mM) 140 NMDG-Cl, 10 CaCl2, 10 glucose, 15 HEPES.
With the exception of GDP-γ-S, which was applied via the patch pipette, all substances were applied to the bath using either a bath perfusion system (BPS4 from ALA, New York, USA) or a rapid solution changer (RSC160 from Biologic, Claix, France) which were controlled by the PatchMaster software (HEKA Elektronik).

Compound: CCCC(=O)OCC [Etb, ethyl butyrate]
- latency of Ii: < 0.5 s
- Ii Peak size (ADP and GDP (-)): 1.6 ± 0.3 pA
- Ii Peak time (ADP and GDP (-)): 1.38 ± 0.23 s
- Ii Recov. (ADP and GDP (-)): 4.5 ± 1.2 s
- Im Latency (ADP and GDP (-)): 11 ± 3 s
- Im Peak size (ADP and GDP (-)): 0.5 ± 0.2 pA
- Im Peak time (ADP and GDP (-)): 36 ± 8 s
- Im Recov. (ADP and GDP (-)): 58 ± 9 s
- Ii Peak size (ATP and GTP (+)): 1.3 ± 0.3 pA
- Ii Peak time (ATP and GTP (+)): 1.13 ± 0.11 s
- Ii Recov. (ATP and GTP (+)): 5.2 ± 1.1 s
- Im Latency (ATP and GTP (+)): 10 ± 2 s
- Im Peak size (ATP and GTP (+)): 1.7 ± 0.4 pA
- Im Peak time (ATP and GTP (+)): 33 ± 4 s
- Im Recov. (ATP and GTP (+)): 45 ± 7 s
